One experiment addresses T1, CDK2/cyclin A2 (Homo sapiens, UniProt P24941).
T1 construct: purchased Carna Biosciences, Inc. QS S Assist CDK2/Cyclin A2_FP Kit
In words: Human CDK2/cyclin A2 inhibitory activity (QS S Assist CDK2/Cyclin A2_FP Kit, IMAP fluorescence polarization). Format: biochemical. The procedure, abridged: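 Kinase activity read as fluorescence polarization (485/535 nm) after phosphorylated fluorescent substrate binds IMAP reagent (30 min, RT, dark). Enzyme (2.5 ng/well) reacted 60 min at RT with ATP/substrate/metal in HEPES pH 7.4 buffer with Tween 20 and DTT; no-enzyme wells define 0% activity; IC50 by curve fit.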

The target of the next experiment is T2, CDK4/cyclin D3 (Homo sapiens, UniProt P11802).
T2 construct: purchased Carna Biosciences, Inc. QS S Assist CDK4/Cyclin D3_FP Kit
T2 sequence (P11802 whole entry): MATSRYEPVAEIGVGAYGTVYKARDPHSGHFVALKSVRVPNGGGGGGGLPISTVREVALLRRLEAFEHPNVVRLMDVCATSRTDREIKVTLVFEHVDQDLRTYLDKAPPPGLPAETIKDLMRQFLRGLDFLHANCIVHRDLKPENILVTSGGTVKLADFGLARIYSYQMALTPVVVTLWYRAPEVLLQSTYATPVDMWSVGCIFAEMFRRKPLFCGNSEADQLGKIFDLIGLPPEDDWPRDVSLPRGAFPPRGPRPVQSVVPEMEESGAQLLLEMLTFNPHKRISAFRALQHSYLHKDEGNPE
T2 sequence (P30281 whole entry partner): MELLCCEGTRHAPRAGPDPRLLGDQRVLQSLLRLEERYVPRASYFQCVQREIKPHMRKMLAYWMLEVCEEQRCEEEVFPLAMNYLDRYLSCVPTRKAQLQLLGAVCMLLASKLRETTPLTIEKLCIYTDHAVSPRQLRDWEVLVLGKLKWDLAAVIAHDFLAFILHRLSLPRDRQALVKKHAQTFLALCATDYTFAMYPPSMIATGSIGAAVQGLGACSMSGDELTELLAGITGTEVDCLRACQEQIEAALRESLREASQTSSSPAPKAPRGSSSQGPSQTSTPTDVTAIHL
In words: Human CDK4/cyclin D3 inhibitory activity (QS S Assist CDK4/Cyclin D3_FP Kit, IMAP fluorescence polarization). Format: biochemical. The gist of the method: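 IMAP fluorescence-polarization kinase assay with kit ATP/substrate/metal mix and 12.5 to 25 ng/well enzyme in 20 mM HEPES pH 7.4, 0.01% Tween20, 2 mM DTT. Reaction ran 45 min at room temperature, then binding reagent was added for 30 min in the dark. IC50 was taken from dose-response fits of percent inhibition.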
(In general: In fluorescence polarisation assays a small probe gives low polarisation when free and higher when bound to something large.)

[1] abbreviates: 50% inhibitory concentration against CDK2/cyclin A2, given as class symbol.
Where [2] appears, read: 50% inhibitory concentration against CDK4/cyclin D3, given as class symbol.
[3] abbreviates: Human CDK2/cyclin A2 inhibitory activity, read-out: CDK2 Activity symbol.
[4] abbreviates: Human CDK4/cyclin D3 inhibitory activity, read-out: CDK4 Activity symbol.

Read-outs that look alike come from different tables or passages of the source. Bounds are passed on as bounds.

For `CC(C)Nc1nc([C@@H](C)O)cc2cnc(Nc3ccc(NC(=O)C4CCCCN4)cn3)nc12` (stereo partly drawn) [Compound 788], the IC50 was ≥ 100 nM at CDK2/cyclin A2 (setting [1]) and < 10 nM against CDK4/cyclin D3 (setting [2]).

Consider `CC1(c2cc3cnc(Nc4ccc(N5CCNCC5)nn4)nc3c(N[C@H]3CCCOC3)n2)COC1` [Compound 880], for which the IC50 is ≥ 100 nM on CDK2/cyclin A2 (setting [1]) and < 10 nM on CDK4/cyclin D3 (setting [2]).

With `O=C1CNCCN1c1ccc(Nc2ncc3cc(C(F)F)nc(N[C@H]4CCCOC4)c3n2)nc1` [Compound 849], the IC50 is 10 to 100 nM against CDK2/cyclin A2 (setting [1]) and < 10 nM at CDK4/cyclin D3 (setting [2]).

For the compound `CO[C@H](C)c1cc2cnc(Nc3ccc(N4CCN(C(=O)C(C)C)CC4)nn3)nc2c(NC(C)C)n1` [Compound 747], the IC50 is ≥ 100 nM against CDK2/cyclin A2 (setting [1]) and 10 to 100 nM against CDK4/cyclin D3 (setting [2]).

On to `CC(C)Nc1nc(C(F)F)cc2cnc(Nc3ccc(CN4CCC(N(C)C)CC4)cn3)nc12` [Compound 130], for which the values for the IC50 on CDK2/cyclin A2 (setting [3]) and at CDK4/cyclin D3 (setting [4]) were 10 to 100 nM and < 10 nM, respectively.

On to `CCC(OC)c1cc2cnc(Nc3ccc(N4CCNCC4)nn3)nc2c(NC(C)C)n1` (stereo not drawn) [Compound 1069], for which the IC50 at CDK2/cyclin A2 (setting [1]) was ≥ 100 nM; against CDK4/cyclin D3 (setting [2]), 10 to 100 nM.

`C[C@@H](O)c1cc2cnc(Nc3ccc(N4CCCC(C(=O)O)C4)nn3)nc2c(N[C@H]2CC[C@H](O)CC2)n1` (stereo partly drawn) [Compound 1218]: the IC50 is ≥ 100 nM against CDK2/cyclin A2 (setting [1]) and < 10 nM against CDK4/cyclin D3 (setting [2]).

Regarding `CC(C)Nc1nc([C@@H](C)O)cc2cnc(Nc3ccc(N4CCN(CC(F)(F)F)CC4)nn3)nc12` [Compound 963], the values for the IC50 against CDK2/cyclin A2 (setting [1]) and at CDK4/cyclin D3 (setting [2]) were ≥ 100 nM and < 10 nM, respectively.

Consider `CC(C)Nc1nc(C(F)F)cc2cnc(Nc3ccc(CN4CCOCCC4=O)cn3)nc12` [Compound 173], for which the IC50 was 10 to 100 nM at CDK2/cyclin A2 (setting [3]) and < 10 nM at CDK4/cyclin D3 (setting [4]).

Turning to `CO[C@H](C)c1cc2cnc(Nc3ccc4c(n3)CCN(CCO)C4)nc2c(N[C@H]2CC[C@H](O)CC2)n1` [Compound 1153], the IC50 was ≥ 100 nM against CDK2/cyclin A2 (setting [1]) and < 10 nM on CDK4/cyclin D3 (setting [2]).

Consider `CC(C)Nc1nc([C@@H](C)O)cc2cnc(Nc3ccc(C4CCN(C(C)(C)C(=O)O)CC4)nn3)nc12` [Compound 790], for which the IC50 is ≥ 100 nM against CDK2/cyclin A2 (setting [1]) and < 10 nM on CDK4/cyclin D3 (setting [2]).

As to `CO[C@H](C)c1cc2cnc(Nc3ccc(N4CCNCC4)nn3)nc2c(NC2CCC(C)(C)CC2)n1` [Compound 726], the IC50 at CDK2/cyclin A2 (setting [1]) was ≥ 100 nM; against CDK4/cyclin D3 (setting [2]), < 10 nM.

Turning to `COC[C@H](C)Nc1nc([C@@H](C)O)c(Cl)c2cnc(Nc3ccc(N4CCNCC4=O)cn3)nc12` [Compound 756], the results for the IC50 on CDK2/cyclin A2 (setting [1]) and against CDK4/cyclin D3 (setting [2]) were ≥ 100 nM and 10 to 100 nM, respectively.

In the case of `C[C@@H](O)c1cc2cnc(Nc3ccc(CN4CCC[C@H](O)C4)cn3)nc2c(N[C@H]2CC[C@H](O)CC2)n1` [Compound 1190], the IC50 against CDK2/cyclin A2 (setting [1]) was ≥ 100 nM; against CDK4/cyclin D3 (setting [2]) it was < 10 nM.

Take `CCCNc1nc(C2CCOC2)cc2cnc(Nc3ccc(N4CCNCC4)nn3)nc12` (stereo not drawn) [Compound 946]: the IC50 was ≥ 100 nM on CDK2/cyclin A2 (setting [1]) and < 10 nM on CDK4/cyclin D3 (setting [2]).

With `CC(=O)c1cc2cnc(Nc3ccc(CN4CCNCC4)cn3)nc2c(NCC(C)C)n1` [Compound 912], the IC50 was ≥ 100 nM against CDK2/cyclin A2 (setting [1]) and < 10 nM against CDK4/cyclin D3 (setting [2]).

As for `CC(C)Nc1nc([C@@H](C)O)cc2cnc(Nc3ccc(CCCN4CCOCC4=O)cn3)nc12` [Compound 229], the IC50 was ≥ 100 nM at CDK2/cyclin A2 (setting [3]) and < 10 nM on CDK4/cyclin D3 (setting [4]).

As to `CC(C)Nc1nc([C@@H](C)O)cc2cnc(Nc3ccc(O[C@H]4CCNC[C@H]4F)cn3)nc12` [Compound 569], the values for the IC50 on CDK2/cyclin A2 (setting [3]) and on CDK4/cyclin D3 (setting [4]) were ≥ 100 nM and < 10 nM, respectively.

On to `COCC(C)(C)Nc1nc([C@@H](C)O)cc2cnc(Nc3ccc(CN4CC[C@@H](F)C4)cn3)nc12` [Compound 292], for which the IC50 on CDK2/cyclin A2 (setting [3]) was ≥ 100 nM; on CDK4/cyclin D3 (setting [4]), 10 to 100 nM.

As to `CC(C)Nc1nc(C(F)F)cc2cnc(Nc3ccc(NS(C)(=O)=O)cn3)nc12` [Compound 88], the IC50 on CDK2/cyclin A2 (setting [3]) and at CDK4/cyclin D3 (setting [4]) was ≥ 100 nM each time.

Take `CC(C)Nc1nc(C(C)O)cc2cnc(Nc3ccc(OC4CNCCC4F)cn3)nc12` (stereo not drawn) [Compound 864]: the IC50 against CDK2/cyclin A2 (setting [1]) was ≥ 100 nM; against CDK4/cyclin D3 (setting [2]), < 10 nM.

On to `CCNc1nc([C@@H](C)O)cc2cnc(Nc3ccc(CN4CCN(CCO)C(C)(C)C4)cn3)nc12` [Compound 1169], for which the results for the IC50 against CDK2/cyclin A2 (setting [1]) and on CDK4/cyclin D3 (setting [2]) were ≥ 100 nM and < 10 nM, respectively.

Consider `CC(C)Nc1nc(C(=O)N(C)C)cc2cnc(Nc3ccc(N4CCNCC4)cn3)nc12` [Compound 34], for which the IC50 was ≥ 100 nM on CDK2/cyclin A2 (setting [3]) and 10 to 100 nM on CDK4/cyclin D3 (setting [4]).

Turning to `C[C@@H](O)c1cc2cnc(Nc3ccc(C4CCNCC4)cn3)nc2c(N[C@H]2CCCOC2)n1` [Compound 957], the IC50 against CDK2/cyclin A2 (setting [1]) was ≥ 100 nM; on CDK4/cyclin D3 (setting [2]) it was < 10 nM.

Consider `CC(C)Nc1nc(C2CCCO2)cc2cnc(Nc3ccc(CN4CCNCC4)cn3)nc12` (single isomer, unassigned) [Compound 730], for which the IC50 on CDK2/cyclin A2 (setting [1]) was ≥ 100 nM; against CDK4/cyclin D3 (setting [2]), 10 to 100 nM.

Take `CO[C@H](C)c1cc2cnc(Nc3ccc(N4CCNCC4)nn3)nc2c(NCC(C)(C)C)n1` [Compound 710]: the IC50 against CDK2/cyclin A2 (setting [1]) is ≥ 100 nM; against CDK4/cyclin D3 (setting [2]), < 10 nM.

On to `C[C@@H](O)c1nc(NC2CCOCC2)c2nc(Nc3ccc(CN4CCNCC4)cn3)ncc2c1Cl` [Compound 326], for which the IC50 at CDK2/cyclin A2 (setting [3]) is ≥ 100 nM; on CDK4/cyclin D3 (setting [4]), < 10 nM.

As for `CC(O)c1cc2cnc(Nc3ccc(N4CCNCC4)cn3)nc2c(NCC(F)(F)F)n1` (stereo not drawn) [Compound 40], the IC50 on CDK2/cyclin A2 (setting [3]) is ≥ 100 nM; on CDK4/cyclin D3 (setting [4]) it was < 10 nM.

Turning to `CCCNc1nc(C2(C)COC2)cc2cnc(Nc3ccc(N4CCNCC4)cn3)nc12` [Compound 1002], the IC50 against CDK2/cyclin A2 (setting [1]) was ≥ 100 nM; at CDK4/cyclin D3 (setting [2]), < 10 nM.

Regarding `CC(C)Nc1nc([C@@H](C)O)cc2cnc(Nc3ccc(CN4CCNCC4)nn3)nc12` [Compound 1225], the IC50 against CDK2/cyclin A2 (setting [1]) was ≥ 100 nM; at CDK4/cyclin D3 (setting [2]), < 10 nM.

Regarding `CCNc1nc([C@@H](C)O)cc2cnc(Nc3ccc(CN4CCC(CO)CC4)cn3)nc12` [Compound 1147], the figures for the IC50 on CDK2/cyclin A2 (setting [1]) and at CDK4/cyclin D3 (setting [2]) were ≥ 100 nM and < 10 nM, respectively.

As for `CNc1nc(C(F)F)cc2cnc(Nc3ccc(N4CCNCC4)cn3)nc12` [Compound 19], the IC50 at CDK2/cyclin A2 (setting [3]) is ≥ 100 nM; at CDK4/cyclin D3 (setting [4]), < 10 nM.

With `CCCNc1nc([C@@H](C)OC)cc2cnc(Nc3ccc4c(n3)CCN(CCN(C)C)C4)nc12` [Compound 1130], the IC50 on CDK2/cyclin A2 (setting [1]) was ≥ 100 nM; at CDK4/cyclin D3 (setting [2]), 10 to 100 nM.

For `COCC(C)(C)Nc1nc([C@@H](C)O)cc2cnc(Nc3ccc(CCO)cn3)nc12` [Compound 228], the IC50 at CDK2/cyclin A2 (setting [3]) was ≥ 100 nM; at CDK4/cyclin D3 (setting [4]), 10 to 100 nM.

In the case of `C[C@@H](O)c1cc2cnc(Nc3ccc(N4CCN(C=O)CC4=O)cn3)nc2c(N[C@@H]2CCOC2)n1` [Compound 353], the IC50 on CDK2/cyclin A2 (setting [3]) is ≥ 100 nM; at CDK4/cyclin D3 (setting [4]), < 10 nM.

With `CO[C@H](C)c1cc2cnc(Nc3ccc(CN4CCN(CCO)CC4)cn3)nc2c(NC(C)C)n1` [Compound 508], the IC50 on CDK2/cyclin A2 (setting [3]) was ≥ 100 nM; on CDK4/cyclin D3 (setting [4]), < 10 nM.

As for `CC(C)Nc1nc(C(F)F)cc2cnc(Nc3ccc(CN4CCCC4=O)cn3)nc12` [Compound 165], the IC50 is ≥ 100 nM on CDK2/cyclin A2 (setting [3]) and < 10 nM on CDK4/cyclin D3 (setting [4]).

`CC(C)Nc1nc([C@@H](C)O)cc2cnc(Nc3ccc(C(=O)N4CCC(N(C)C)CC4)cn3)nc12` [Compound 1161]: the IC50 against CDK2/cyclin A2 (setting [1]) was 10 to 100 nM; against CDK4/cyclin D3 (setting [2]) it was < 10 nM.

As to `CCNc1nc([C@@H](C)O)cc2cnc(Nc3ccc4c(n3)CCN(C(=O)CO)C4)nc12` [Compound 1117], the IC50 against CDK2/cyclin A2 (setting [1]) was ≥ 100 nM; on CDK4/cyclin D3 (setting [2]), 10 to 100 nM.

For the origin of these results see patent publication US10124004B2, “Pyrido[3,4-d]pyrimidine derivative and pharmaceutically acceptable salt thereof” (Teijin Pharma Limited, priority 2015, dated 2018).
